According to article PMC9921896 (Molecules, 2023):

Tests used:
[1] = Substrate depletion assay in human liver microsomes (HLM); type: in vitro ADME; conditions: pooled human liver microsomes, pH 7.4, test conc. 1.0E-07 M (Table S4)
Description: (§1) Microsomal stability was determined for the TbB ligands by monitoring the presence of compound after incubation in CPHH and HLM, as shown in Figure 7 and Figure S18 of the Supporting Information. […] Such an observation with NCEs is common because, with HLM, NADPH is used as a cofactor, thereby focusing mainly on phase 1 oxidation pathways such as P450 metabolism. Although additional enzymes, such as UDP-glucuronosyltransferase (UGTs), are present in HLM, the lack of the associated necessary cofactors prevents them from being functionally active (e.g., uridine diphosphate glucuronic acid (UDPGA)). In contrast, all the three TbB ligands metabolized in cryopreserved hepatocytes (Figure 7). […] The reason could be that hepatocytes have all the necessary enzymes and cofactors for the metabolic processes. Since they contain the complete set of oxidative/reductive, hydrolytic, and conjugative drug metabolizing enzymes found in the liver, they are regarded as the gold standard. Therefore, they are preferred in vitro options for expressing metabolic stability as substrate depletion, total metabolic clearance, and T 1/2 [29].
(§2) From the plot shown in Figure S18 of the Supporting Information, it can be inferred that the TbB ligands undergo slow biotransformation in HLM. Such high metabolic stability may result in drug interactions leading to toxicity of the parent compound. On the contrary, TbB ligands are undergoing rapid biotransformation in CPHH (Figure 7), and this may lead to generation of metabolites that are either toxic, active, or nonactive. Metabolic stability is typically expressed by in vitro half-life T 1/2 and intrinsic clearance (CLint) terms. Intrinsic clearance (CLint) is measured using the substrate depletion method. It describes the maximum liver (microsomal proteins or hepatocytes) activity towards a compound not affected by other physiological factors such as hepatic blood flow and drug binding within the blood matrix. T 1/2 is used to express the time for the 50% disappearance of the parent compound. A possible explanation for the difference in metabolic stability might be that the TbB ligands bind to microsomes during incubation. This can result in decreased free TbB ligand levels available to interact with metabolizing enzymes, reducing apparent intrinsic clearance values.
By preincubating a test substance for 5 minutes in phosphate buffer (pH 7.4) at 37 °C in shaking water bath, the stability of the test substance was examined in pooled HLM. After NADPH-generating systems addition, the reaction gets initiated and post incubation for 0, 15, 30, 45, and 60 min, the reaction is terminated with addition of acetonitrile/methanol to the incubation mixture. Supernatant obtained after mixing and centrifuging the sample is analyzed by HPLC-MS/MS. Microsomal protein for final use is at 0.1 mg/mL concentration. Four compounds, namely, propranolol and imipramine, known to be relatively stable, and verapamil and terfenadine, known as readily metabolizing in HLM, were included in each assay. Post HPLC-MS/MS of the samples, data are analyzed by considering test compounds peak area at each time point to time zero. Assuming the reaction to follow first-order kinetics, the slope of the initial linear range of the logarithmic curve of remaining compound (%) vs. time is considered to calculate the half-life. Additionally, the half-life is utilized to calculate the intrinsic clearance (CLint) as shown in the following equation. CLint(μL/min/mgprotein)=0.693/T1/2×proteinconc.

[2] = Substrate depletion assay in cryopreserved human hepatocytes (CPHH); type: in vitro ADME; conditions: pooled cryopreserved human hepatocytes; for half-life at 1 µM: pH 7.3, test conc. 1.0E-06 M (Table S4); for half-life / hepatocyte CLint: pH 7.3, test conc. 1×10^−6 M, n = 3
Description: as §1, §2
The test compound stability in a pooled human cryopreserved hepatocytes was tested after thawing, washing, and resuspending the cryopreserved hepatocytes in Krebs–Heinslet buffer (pH 7.3). The onset of reaction happens by the addition of the test compound into cell suspension and incubated for 0, […], 1, 1.5, and 2 h, respectively, at 37 °C/5% CO 2 . The reaction is terminated in the incubation mixture by the addition of acetonitrile. After thorough sample mixing, the sample was completely transferred to another 96-well plate and centrifuged, followed by HPLC-MS/MS analysis of supernatant. Four compounds as reference, namely, propranolol, a relatively stable and readily metabolizing flurazepam, naloxone, and HFC (7-hydroxy-4-trifluoromethyl-coumarin) in human hepatocytes were included in each assay. Data analysis was performed as mentioned above and the intrinsic clearance (CLint) is calculated from the half-life using the following equation. CLint(μL/min/millioncells)=0.693/T1/2×CellDensity.

[3] = system: CYP3A4/5; experiment: Single concentration Kobs assay (time-dependent inhibition) in HLM; type: biochemical, human; conditions: for Kobs 3A4: HLM, 0.02 min^−1 indicates TD inhibition potential; for Kobs 3A4 / inhibition at 30 min: single concentration; for Single concentration Kobs assay (risk bin) 3A4: TD inhibition class from Kobs vs 0.02 min^−1 (Table 5 traffic lights); for inhibition at 30 min: human, human liver microsomes, significant if >50%, read-out: 3A4 R_Inh% (reversible inhibition)
Text: CYP inhibition evaluation is typically performed by either IC50 at single-point or IC50 Shift or abbreviated assay such as the first-order inactivity rate constant (K obs ) at single concentration.
This method yielded good correlations between the percent inhibition at 10 or 25 μ M and kinact/KI. Evaluation of TD inhibition at single concentration has been implemented in several drug discovery programs. […] Therefore, in this study, a single K obs approach has been utilized to understand the TD inhibition potential of TbB ligands. Ideally, the inhibition of CYPs can be reversible or irreversible. The data obtained from single-concentration K obs studies were analyzed to understand the same. From the data presented in Table 4, the TbB ligands have values less than 50% for reversible inhibition (R_Inh). As the qualified % reversible inhibition is considered significant if >50%, no significant reversible inhibition is observed for TbB ligands. Knowledge about enzyme inactivation half-life (E½) is also equally important as it would provide insight into the TD inhibition of a compound. E½ can be used to bin the compounds as positive or negative TD inhibitors if the values are <28 or >28, respectively. The TbB ligand 223-2 is observed to be a weak positive TD inhibitor of 1A2 and is negative TD inhibitor to the other six CYP isoforms.
The time-dependent inhibition (TDI) potential of test compounds against CYP1A2, 2B6, 2C8, 2C9, 2C19, 2D6, 3A4/5 isoforms were determined using Human liver microsomes. Assay is performed in 96-deep well plate format (n = 1). Positive controls and DMSO as negative control in each assay. To obtain 100 μ M working stock solution, 1 μ L of blank DMSO/test/reference compounds to 100 μ L 1× DPBS buffer was added and labeled as dilution plate. To the primary incubation plate, 45 μ L of primary mix was dispensed to the desired wells containing 25 μ L HLM, 10 μ L MgCl2, and 10 μ L of NADPH working solutions. To the secondary incubation plate, 95 μ L of secondary mix was dispensed to the desired wells containing 20 μ L MgCl2, 20 μ L NADPH, 10 μ L respective substrates for CYP isoform working solutions and 45 μ L 1× DPBS buffer. Each of these four plates were labeled with their respective time points, i.e., 0, 6, 16, 32 min. Pre-incubated the dilution plate along with primary incubation plate at 37 °C for 15 min at 450 rpm. The reaction was carried out in triplicate. After the incubation, the reaction was quenched by adding 150 μ L ice cold stop solution to all the wells followed by centrifuging the samples at 4000 rpm, 4 °C for 15 min. The supernatant samples were then transferred into vials for LC-MS/MS analysis. The percent Reversible Inhibition was calculated using the following formula. %Reversibleinhibition=100−(PARtestcompt0×100)/(PARaverageDMSOt0)

half-life at 100 nM [1]	microsomal CLint at 100 nM [1]	half-life at 1 µM [2]	half-life [2]	hepatocyte CLint [2]	Single concentration Kobs assay (risk bin) 3A4 [3]	inhibition at 30 min [3]	SMILES	Kobs 3A4 [3]
75 min	< 116 µL/min/mg	54 min	54 min	18.4 µL/min/1e6 cells	weak positive inhibitor	< 50%	Cc1cc(-c2nnn(-c3cc(C)c(O)c(C)c3)n2)cc(C)c1O [223-3]	0.02143 min⁻¹
180 min	< 116 µL/min/mg	36 min	36 min	27.8 µL/min/1e6 cells	negative inhibitor	< 50%	Oc1ccc(-c2nnn(-c3ccc(O)cc3)n2)cc1 [223-10]	0.001719 min⁻¹
809 min	< 116 µL/min/mg	33 min	33 min	29.8 µL/min/1e6 cells	negative inhibitor	< 50%	COc1cc(-c2nnn(-c3cc(OC)c(O)c(OC)c3)n2)cc(OC)c1O [223-2]	0.006312 min⁻¹
